Reference: the NIST ThermoML archive (doi:10.1016/j.fluid.2007.10.010)
± gives the expanded uncertainty stated by the source.

Key:
[1] = 298.15 K; 101.33 kPa; Liquid; Vibrating tube method
[2] = refractive index (Na D-line) (dimensionless); conditions: 298.15 K; 101.33 kPa; Liquid; Standard Abbe refractometry

SMILES	mass density [1] [kg/m3]	refractive index [2]
CCCCCC [hexane]	655.06 ± 0.31	1.37287 ± 0.0007
CCCCCCCCn1cc[n+](C)c1.O=S(=O)([N-]S(=O)(=O)C(F)(F)F)C(F)(F)F	1320.76 ± 12	1.43331 ± 0.0012
CCCCCCC [heptane]	679.466 ± 0.26	1.38517 ± 0.00068
c1ccsc1 [thiophene]	1058.5 ± 0.23	1.52581 ± 0.00068
CCCCCCCCCCCCCCCC [hexadecane]	771.15 ± 0.3	1.43232 ± 0.0007
